Read-outs that look alike come from different tables or passages of the source.
Test system: HIV-1 LAI
Assay: Single-round infectious luciferase reporter virus (HIV-1 LAI envelope) infection of MT2 cells
Format: cell-based
Details: Human immunodeficiency virus 1, MT2, 72 h
Source text: • Virus Production— • Human embryonic Kidney cell line, 293T (HEK 293T), was propagated in Dulbecco's Modified Eagle Medium (Invitrogen, Carlsbad, Calif.) containing 10% fetal Bovine serum (FBS, Sigma, St. Louis, Mo.). The human T-cell leukemia cell MT2 (AIDS Research and Reference Reagent Program, Cat. 237) was propagated in RPMI 1640 (Invitrogen, Carlsbad, Calif.) containing 10% fetal bovine serum (FBS, Hyclone, Logan, Utah) • Virus Infection— • Single-round infectious reporter virus was produced by co-transfecting HEK 293T cells with plasmide expressing the HIV-1 LAI envelope along with a plasmid containing an HIV-1 LAI proviral cDNA with the envelope gene replaced by a firefly luciferase reporter gene (Chen et al, Ref 41). Transfections were performed using lipofectAMINE PLUS reagent as described by the manufacturer (Invitrogen, Carlsbad, Calif.).
• 1. MT2 cells were plated in black, 384 well plates at a cell density of 5×10^3 cells per well in 25 μl RPMI 1640 containing 10% FBS. • 2. Compound (diluted in dimethylsulfoxide and growth medium) was added to cells at 12.5 μl/well, so that the final assay concentration would be ≦50 nM. • 3. 12.5 μl of single-round infectious reporter virus in Dulbecco's Modified Eagle Medium was added to the plated cells and compound at an approximate multiplicity of infection (MOI) of 0.01, resulting in a final volume of 50 μl per well. • 4. Virus-infected cells were incubated at 37 degrees Celsius, in a CO2 incubator, and harvested 72 h after infection. • 5. Viral infection was monitored by measuring luciferase expression in the infected cells using a luciferase reporter gene assay kit (Steady-Glo, Promega, Madison, Wis.) as described by the manufacturer. Luciferase activity was then quantified by measuring luminescence using an EnVision Multilabel Plate Readers (PerkinElmer, Waltham, Mass.). • 6. The percent inhibition for each compound was calculated by quantifying the level of luciferase expression in cells infected in the presence of each compound as a percentage of that observed for cells infected in the absence of compound and subtracting such a determined value from 100. • 7. An EC50 provides a method for comparing the antiviral potency of the compounds of this disclosure. The effective concentration for fifty percent inhibition (EC50) was calculated with the Microsoft Excel Xlfit curve fitting software. For each compound, curves were generated from percent inhibition calculated at 10 different concentrations by using a four parameter logistic model (model 205). Table 1 is the key for the data in Table 2.

[1] = read-out: EC50 Group from Table 1

Row | Structure (SMILES) | EC50 | EC50 [1]
1 | O=C(C(=O)N1CCC2(CCN(c3nnnn3-c3ccccc3)C2)C1)c1c[nH]c2c(-n3ccnn3)ncc(F)c12 (centres unmarked) [Compound 1001, 1-(4-fluoro-7-(1H-1,2,3-triazol-1-yl)-1H-pyrrolo[2,3-c]pyridin-3-yl)-2-(7-(1-phenyl-1H-tetrazol-5-yl)-2,7-diazaspiro[4.4]nonan-2-yl)ethane-1,2-dione] | 5.65 nM | < 500 nM
2 | COc1cnc(-n2cnc(C)n2)c2[nH]cc(C(=O)C(=O)N3CC4(C3)CN(c3nnnn3-c3ccccc3)C4)c12 [Compound 4001, 1-(4-methoxy-7-(3-methyl-1H-1,2,4-triazol-1-yl)-1H-pyrrolo[2,3-c]pyridin-3-yl)-2-(6-(1-phenyl-1H-tetrazol-5-yl)-2,6-diazaspiro[3.3]heptan-2-yl)ethane-1,2-dione] | 219 nM | < 500 nM
3 | COc1cnc(-n2cnc(C)n2)c2[nH]cc(C(=O)C(=O)N3CCC4(CCN(c5nnnn5-c5ccccc5)C4)C3)c12 (centres unmarked) [Compound 1002, 1-(4-methoxy-7-(3-methyl-1H-1,2,4-triazol-1-yl)-1H-pyrrolo[2,3-c]pyridin-3-yl)-2-(7-(1-phenyl-1H-tetrazol-5-yl)-2,7-diazaspiro[4.4]nonan-2-yl)ethane-1,2-dione] |  | < 500 nM
4 | O=C(C(=O)N1CCC2(CCN(C(=O)c3ccccc3)C2)C1)c1c[nH]c2c(-n3ccnn3)ncc(F)c12 (centres unmarked) [Compound 2003] |  | > 500 nM
5 | COc1cnc(-n2cnc(C)n2)c2[nH]cc(C(=O)C(=O)N3CCC4(CCN(Cc5ccccc5)C4)C3)c12 (centres unmarked) [Compound 2002] |  | > 500 nM
6 | COc1cnc(-n2cnc(C)n2)c2[nH]cc(C(=O)C(=O)N3CCC4(CCN(C(=O)c5ccccc5)C4)C3)c12 (centres unmarked) [Compound 2004] |  | > 500 nM

— patent US8664213B2, “Spiro bicyclic diamine derivatives as HIV attachment inhibitors” (priority 2011, dated 2014)
